In PubChem BioAssay AID248 (DTP/NCI, 2004):
Several values for one entry are separate records, joined by “and”; a condition that tells them apart may be missing. Equal values may be shown once. Inconclusive results and toxic doses are left out. Rule as the data show it: active = T/C of 150% or more; inactive = T/C below 125%.

Tested on: L1210 leukemia ip in BDF1 mice, survival T/C
Assay: NCI In Vivo Anticancer Drug Screen. Data for tumor model L1210 Leukemia (intraperitoneal) in B6D2F1 (BDF1) mice
Conditions: endpoint: mean survival time, higher = longer survival
Summary of the method: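 Tumor was transplanted into mice, which were then dosed with test compound or vehicle alone. Survival was recorded for each group, and the treated figure was expressed relative to the control figure.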

[1] = dose: 100.0 mg/kg/injection, schedule: Q01DX009 (ip), vehicle: Klucel (hydroxypropylcellulose) (HPC)
[2] = dose: 100.0 mg/kg/injection, schedule: Q04DX003 (ip), vehicle: Klucel (hydroxypropylcellulose) (HPC)
[3] = dose: 200.0 mg/kg/injection, schedule: Q01DX009 (ip), vehicle: Klucel (hydroxypropylcellulose) (HPC)
[4] = dose: 200.0 mg/kg/injection, schedule: Q04DX003 (ip), vehicle: Klucel (hydroxypropylcellulose) (HPC)
[5] = dose: 400.0 mg/kg/injection, schedule: Q01DX009 (ip), vehicle: Klucel (hydroxypropylcellulose) (HPC)
[6] = dose: 400.0 mg/kg/injection, schedule: Q04DX003 (ip), vehicle: Klucel (hydroxypropylcellulose) (HPC)
[7] = dose: 50.0 mg/kg/injection, schedule: Q01DX001 (ip), vehicle: Klucel (hydroxypropylcellulose) (HPC)
[8] = dose: 100.0 mg/kg/injection, schedule: Q01DX001 (ip), vehicle: Klucel (hydroxypropylcellulose) (HPC)
[9] = dose: 200.0 mg/kg/injection, schedule: Q01DX001 (ip), vehicle: Klucel (hydroxypropylcellulose) (HPC)
[10] = dose: 25.0 mg/kg/injection, schedule: Q01DX009 (ip), vehicle: Klucel (hydroxypropylcellulose) (HPC)
[11] = dose: 50.0 mg/kg/injection, schedule: Q01DX009 (ip), vehicle: Klucel (hydroxypropylcellulose) (HPC)
[12] = dose: 100.0 mg/kg/injection, schedule: Q01DX001 (ip), vehicle: saline
[13] = dose: 100.0 mg/kg/injection, schedule: Q04DX003 (ip), vehicle: saline
[14] = dose: 200.0 mg/kg/injection, schedule: Q04DX003 (ip), vehicle: saline
[15] = dose: 400.0 mg/kg/injection, schedule: Q04DX003 (ip), vehicle: saline

Measured: T/C

N#CC1(Nc2ccc(S(N)(=O)=O)cc2)CCCC1
inactive: dose: 50.0 mg/kg/injection, schedule: Q01DX001 (ip), vehicle: carboxymethylcellulose (CMC) 95 % of control | dose: 100.0 mg/kg/injection, schedule: Q01DX001 (ip), vehicle: carboxymethylcellulose (CMC) 93 % of control | dose: 200.0 mg/kg/injection, schedule: Q01DX001 (ip), vehicle: carboxymethylcellulose (CMC) 98 % of control

O=[N+]([O-])c1ccc(CBr)c(I)c1
inactive: dose: 75.0 mg/kg/injection, schedule: Q01DX001 (ip), vehicle: other 98 % of control | dose: 150.0 mg/kg/injection, schedule: Q01DX001 (ip), vehicle: other 102 % of control | dose: 300.0 mg/kg/injection, schedule: Q01DX001 (ip), vehicle: other 94 % of control

Cc1cc(Cl)ccc1NC(=O)c1ccccc1C(=O)O
inactive: [1] 96 % of control | [2] 98 % of control | [3] 93 % of control | [4] 91 % of control | [5] 102 % of control | [6] 93 % of control

CCCCCCCCCCCCCCCOc1cccc(OCCCCCCCCCCCCCCC)c1
inactive: [7] 92 % of control | [8] 92 % of control | [9] 92 % of control

NC(N)=NC(N)=Nc1cccc(Cl)c1
inactive: [10] 108 % of control and 88 % of control | [11] 94 % of control and 97 % of control | [8] 93 % of control | [2] 105 % of control | [9] 103 % of control

COc1cccc(CNCc2cccc(OC)c2O)c1O
inactive: [12] 96 % of control

CN(C)N=Nc1ccc(C(=O)NC(CCC(=O)NN)C(=O)NN)cc1 (configuration not stated)
inactive: [12] 96 % of control | dose: 200.0 mg/kg/injection, schedule: Q01DX001 (ip), vehicle: saline 111 % of control | dose: 400.0 mg/kg/injection, schedule: Q01DX001 (ip), vehicle: saline 94 % of control

C=COCCOC
inactive: dose: 100.0 mg/kg/injection, schedule: Q01DX009 (ip), vehicle: saline with Tween-80 104 % of control | dose: 200.0 mg/kg/injection, schedule: Q01DX009 (ip), vehicle: saline with Tween-80 101 % of control | dose: 400.0 mg/kg/injection, schedule: Q01DX009 (ip), vehicle: saline with Tween-80 107 % of control

CCCCCCCCCCCCC#N
inactive: [1] 111 % of control | [2] 110 % of control | [3] 119 % of control | [4] 113 % of control | [5] 100 % of control | [6] 117 % of control

CCOC(=O)C(=CNc1ccc(OCCCOc2ccccc2)cc1)C(=O)OCC
inactive: dose: 100.0 mg/kg/injection, schedule: Q01DX001 (ip), vehicle: gum acacia 98 % of control | dose: 200.0 mg/kg/injection, schedule: Q01DX001 (ip), vehicle: gum acacia 90 % of control | dose: 400.0 mg/kg/injection, schedule: Q01DX001 (ip), vehicle: gum acacia 102 % of control

CCSC(C)C
inactive: [13] 106 % of control | [14] 107 % of control | [15] 102 % of control

Cc1ccc(C)c(NC(=O)Nc2ccc(Cl)cc2)c1
inactive: dose: 100.0 mg/kg/injection, schedule: Q01DX009 (ip), vehicle: gum acacia 96 % of control | dose: 100.0 mg/kg/injection, schedule: Q04DX003 (ip), vehicle: gum acacia 98 % of control | dose: 200.0 mg/kg/injection, schedule: Q01DX009 (ip), vehicle: gum acacia 100 % of control | dose: 200.0 mg/kg/injection, schedule: Q04DX003 (ip), vehicle: gum acacia 90 % of control | dose: 400.0 mg/kg/injection, schedule: Q01DX009 (ip), vehicle: gum acacia 96 % of control | dose: 400.0 mg/kg/injection, schedule: Q04DX003 (ip), vehicle: gum acacia 95 % of control

COc1cc2cccc(OC)c(=O)c2c(O)c1OC
inactive: [10] 92 % of control | [11] 96 % of control | [1] 92 % of control and 106 % of control | [2] 101 % of control | [4] 92 % of control | [6] 99 % of control

COC(=O)C1=C(C(=O)OC)[C@H]2O[C@H]1[C@@H]1O[C@@H]12
inactive: dose: 6.25 mg/kg/injection, schedule: Q01DX009 (ip), vehicle: saline 104 % of control | dose: 12.5 mg/kg/injection, schedule: Q01DX001 (ip), vehicle: saline 99 % of control | dose: 12.5 mg/kg/injection, schedule: Q01DX009 (ip), vehicle: saline 100 % of control | dose: 25.0 mg/kg/injection, schedule: Q01DX001 (ip), vehicle: saline 100 % of control

C/C(=N\NC(=O)CCCCC(=O)N/N=C(\C)c1ccc(C)cc1)c1ccc(C)cc1
inactive: [1] 88 % of control | [3] 90 % of control | [5] 91 % of control

CCCCO.CCCCO.Cl.[O]=[V]
inactive: dose: 4.0 mg/kg/injection, schedule: Q01DX015 (ip), vehicle: other 97 % of control | dose: 8.0 mg/kg/injection, schedule: Q01DX015 (ip), vehicle: other 97 % of control | dose: 16.0 mg/kg/injection, schedule: Q01DX015 (ip), vehicle: other 96 % of control | dose: 32.0 mg/kg/injection, schedule: Q01DX015 (ip), vehicle: other 108 % of control

COc1cccc(OC#N)c1OC
inactive: dose: 12.5 mg/kg/injection, schedule: Q01DX001 (ip), vehicle: Klucel (hydroxypropylcellulose) (HPC) 93 % of control | dose: 12.5 mg/kg/injection, schedule: Q01DX009 (ip), vehicle: Klucel (hydroxypropylcellulose) (HPC) 95 % of control | dose: 12.5 mg/kg/injection, schedule: Q04DX003 (ip), vehicle: Klucel (hydroxypropylcellulose) (HPC) 96 % of control | dose: 25.0 mg/kg/injection, schedule: Q01DX001 (ip), vehicle: Klucel (hydroxypropylcellulose) (HPC) 98 % of control | [10] 97 % of control | dose: 25.0 mg/kg/injection, schedule: Q04DX003 (ip), vehicle: Klucel (hydroxypropylcellulose) (HPC) 104 % of control | [7] 93 % of control | dose: 50.0 mg/kg/injection, schedule: Q04DX003 (ip), vehicle: Klucel (hydroxypropylcellulose) (HPC) 94 % of control

CCOC(=O)C[N+]1(C)CCC(O)CC1 (configuration not stated)
inactive: [13] 98 % of control | [14] 98 % of control | [15] 101 % of control

CN(C)c1ccc(/C=C2\C=Nc3ccccc32)cc1
inactive: dose: 100.0 mg/kg/injection, schedule: Q04DX003 (ip), vehicle: saline with Tween-80 87 % of control | dose: 200.0 mg/kg/injection, schedule: Q04DX003 (ip), vehicle: saline with Tween-80 87 % of control | dose: 400.0 mg/kg/injection, schedule: Q04DX003 (ip), vehicle: saline with Tween-80 87 % of control

O=NO.O=N[O-].O=N[O-].[Co+3].[NH-]CC[N-]CCO.[NH-]CC[N-]CCO
inactive: dose: 25.0 mg/kg/injection, schedule: Q01DX009 (ip), vehicle: water 107 % of control | dose: 25.0 mg/kg/injection, schedule: Q04DX003 (ip), vehicle: water 100 % of control | dose: 50.0 mg/kg/injection, schedule: Q01DX009 (ip), vehicle: water 106 % of control and 107 % of control | dose: 50.0 mg/kg/injection, schedule: Q04DX003 (ip), vehicle: water 103 % of control | dose: 100.0 mg/kg/injection, schedule: Q01DX009 (ip), vehicle: water 111 % of control | dose: 100.0 mg/kg/injection, schedule: Q04DX003 (ip), vehicle: water 98 % of control and 101 % of control

O=C(/C=C(\Cl)c1ccc2c(c1)OCO2)OC/C=C\c1ccc2c(c1)OCO2
inactive: [11] 94 % of control | [8] 93 % of control | [1] 92 % of control | [9] 88 % of control | [3] 92 % of control
